Assays:
[1] = tested on: gout patient group; experiment: Phase 2 clinical trial (NCT03934099): blood uric acid concentration in gout patients; assay type: in vivo, human
Procedure: (§1) A phase 2 clinical trial was conducted to analyze the dosage, TEAEs, and the like when the compound of Formula 1 (1-(3-cyano-1-isopropyl-indol-5-yl)pyrazol-4-carboxylic acid; compound of Example 1) is administered to a gout patient group.
• 1. Written informed consent (signed and dated) provided voluntarily prior to the start of the study. • 2. Male or female aged from 18 to 75 • 3. History or experience of hyperuricemia and gout in accordance with the criteria of the American College of Rheumatology. • 4. Self-reported history of 2 or more gout flare within 12 months prior to screening visit (Visit 1). • 5. Blood uric acid (sUA) levels at Visit 1 of 6.0 mg/dL or more in subjects who were receiving urate lower therapy (ULT) with allopurinol, febuxostat, probenecid, or lesinurad; and SUA levels at Visit 1 of 8.0 mg/dL or more and 12.0 mg/dL or less in subjects who had no history of receiving the ULT or were not receiving the ULT at visit 1. • 6. SUA levels of 8.0 mg/dL or more and 12.0 mg/dL or less at Visit 3. • 7. Body mass index of 42 kg/m^2 or less at screening visit (Visit 1). • 8. Estimated glomerular filtration rate (eGFR) of 60 mL/min/1.73 m^2 or more at screening visit (Visit 1). • 9. Subjects of childbearing potential with a negative pregnancy test result at screening visit (Visit 1). […]

[2] = tested on: gout patient group; experiment: Phase 2 clinical trial (NCT03934099): analysis of TEAEs; assay type: in vivo, human
Procedure: as §1
Selected patients gave written informed consent according to institutional and study procedures. After screening and wash-out processes (days 26 to 33 pre-dose), a total of 156 patients were finally enrolled, and each patient was randomly assigned to 5 groups of 50 mg, 100 mg and 200 mg dosing groups of the compound of Example 1, a placebo group, and a febuxostat group. Patients in each group self-administered 1 tablet of a combination drug (colchicine, 0.6 mg/day) for the prevention of gout flare along with the assigned investigational drug (50 mg, 100 mg and 200 mg doses of the compound of Example 1, placebo, and 40 mg of febuxostat group) orally, once every morning, at about the same time each day, with water, regardless of food.
The drug was administered for 84 days by setting the first dosing day of the drug as day 1, and basic tests, blood uric acid concentration and the like were measured at clinic visits on 14 days (week 2), 28 days (week 4), 56 days (week 8), and 84 days (week 12) during the dosing period to determine whether TEAEs occurred. After the end of drug administration, a safety follow-up was performed for an additional 2 weeks (98 days, week 14).
Among all patient groups participating in the clinical trial, although the administration was stopped for 3 patients due to headache, gout flare in the left ankle, and liver dysfunction in the 100 mg dosing group of Example 1 and for 1 patient due to an increase in hepatic enzyme in the 200 mg dosing group, no significant treatment emergency adverse event (TEAE) was found in the remaining patient groups.

[3] = tested on: gout patients; conditions: patient group receiving the drug, previous results; cited from earlier work

Which results are given for CC(C)n1cc(C#N)c2cc(-n3cc(C(=O)O)cn3)ccc21 [Example 1, 1-(3-cyano-1-isopropyl-indol-5-yl)pyrazole-4-carboxylic acid]?
blood uric acid lowering effect compared to febuxostat ([1]; 50 mg, 100 mg, 200 mg vs febuxostat 40 mg): equivalent or higher blood uric acid lowering effect; blood uric acid concentration kept within the normal range during the dosing period ([1]; doses of 50 mg, 100 mg and 200 mg, reached within 2 weeks): < 6.0 mg/dL; incidence of TEAEs ([2]; 50 mg, 100 mg and 200 mg groups, vs placebo and febuxostat groups): did not show a significant difference in the incidence of TEAEs; patients for whom administration was stopped ([2]; 100 mg dosing group, headache, gout flare in the left ankle, liver dysfunction): 3 patients; patients for whom administration was stopped ([2]; 200 mg dosing group, increase in hepatic enzyme): 1 patient; adverse cardiovascular TEAEs ([2]; all dosing groups): no reports of adverse cardiovascular TEAEs having a causal relationship

With Oc1ncnc2[nH]ncc12 [allopurinol] as the compound, how does the “patients with a blood uric acid concentration of less than 6 mg/dL” value [3] read?
Its value is “about 40%”.
